Test results from US6331555A, “Treatment of platelet derived growth factor related disorders such as cancers” (priority 1999, dated 2001).
Values joined by “and” are separate entries in the source; they are usually repeats but may differ in a detail not shown here. Equal values may be shown once. Read-outs that look alike come from different tables or passages of the source.

Assays:
U1242 cells = assay: Cytotoxicity in U1242 cells, MTT; format: cell-based, human; conditions: Homo sapiens, read-out: CYTOXICITY MTT U1242 LD50; heading: CYTOXICITY MTT U1242 LD50
Description: The cytotoxicity of each drug was also determined. The cells were plated as described above. Following incubation with drug, cell survival was measured by an MTT assay as described by Mossman J. Immunol. Methods 65:55-63 (1983), or by measuring the amount of LDH released (Korzeniewski and Callewaert, J. Immunol. Methods 64:313 (1983); Decker and Lohmann-Matthes, J. Immunol. Methods 115:61 (1988) .

PDGFR [1] = molecular target: T1, PDGFR (Homo sapiens, UniProt P09619); assay: PDGF-stimulated receptor phosphorylation in U1242 cells, ELISA; format: cell-based; set-up: U1242 (PDGF-β receptor); host or cells: U1242 MG glioma cells; conditions: 100 ng/ml PDGF-BB; read-out: ELISA P-TYR U1242 IC50
Description: (§1) For ELISA assays, cells were grown to 80-90% confluency in growth medium and seeded in 96-well tissue culture plates in 0.5% serum at 25,000 to 30,000 cells per well. After overnight incubation in 0.5% serum-containingmedium, cells were changed to serum-free medium and treated with test compound for 2 hr in a 5% CO2, 37° C. incubator. Cells were then stimulated with ligand for 5-10 min followed by lysis with HNTG (20 mM Hepes, 150 mM NaCl, 10% glycerol, 5 mM EDTA, 5 mM Na3 VO4 0.2% Triton X-100, and 2 mM NaPyr). […] Lysates were incubated with shaking for 1 hr at room temperature. The plates were washed with TBST four times and then incubated with polyclonol anti-phosphotyrosine antibody at room temperature for 30 min. Excess anti-phosphotyrosine antibody was removed by rinsing the plate with TBST four times. Goat anti-rabbit IgG antibody was added to the ELISA plate for 30 min at room temperature followed by rinsing with TBST four more times.
U1242 MG cells were plated in 96-well plates at a concentration of 5×10^4 cells/well in cultured media containing 0.5% FBS. The cells were incubated for 24 hours. The cells were then treated with a particular compound for 2 hours followed by the addition of 100 ng/ml PDGF-BB and incubation for 10 minutes.
Cells were lysed in 0.2 M Hepes, 0.15 M NaCl, 10% V/V glycerol, 0.04% Triton X-100, 5 mM EDTA, 5 MM Na^+ vanadate and […] Na^+ pyrophosphate. Cell lysates were then added to an ELISA plate coated with an anti-PDGF receptor antibody (Genzyme). ELISA plates were coated at […] of antibody/well in […] of PBS for 18 hours at 4° C. prior to the addition of the lysate.
The lysate was incubated in the coated plates for 1 hour and then washed four times in TBST (35 mM Tris-HCl pH 7.0, 0.15 M NaCl, 0.1% Triton X-100). Anti-phosphotyrosine antibody ([…] in PBS) was added and the mixture was incubated for 30 minutes at room temperature. The wells were then washed four times in TBST, a secondary antibody conjugated to POD (TAGO) was added to each well, and the treated wells were incubated for 30 minutes at room temperature. The wells were then washed four times in TBST, ABTS/H2 O2 solution was added to each well and the wells were incubated for two minutes. Absorbance was then measured at 410 nm.

HER2 = assay: Receptor tyrosine kinase inhibition, HER2; format: cell-based; conditions: read-out: HER2 IC50
Description: (§2) For western blotting, cells were plated in 2 mL growth medium into 6-well dishes (500,000 cells per well) and allowed to attach overnight. The medium was replaced with 2 mL MCDB 105 (UCSF Cell Culture Facility) supplemented with 1% FBS. The plates were then incubated overnight at 37° C., ambient CO2. […] After a 7 min incubation at room temperature with ligand, the plates were put on ice and washed three times with 1 mL ice-cold PBS plus 1 mM orthovanadate. Lysis was achieved by pipetting cells in 0.5 mL of buffer containing 50 mM Tris, pH 7.4, 10% glycerol, 1% NP-40, 2 mM EDTA, 1 mM sodium vanadate (Na3 VO4), 10 mM pyrophosphate, 1 mM PMSF, […]. A 300 μL aliquot of each lysate was immediately added to 100 μL 4×Laemmli sample buffer ([…] Tris pH 6.9, 20% glycerol, 7% SDS, 5 mM EDTA, 5% β-mercaptoethanol) containing phosphatase inhibitors, 2 mM Na3 VO4 and 10 mM pyrophosphate. Samples were boiled for 5 min, frozen in dry ice-ethanol, and stored at -80° C. Proteins were resolved by SDS-PAGE (Bio-Rad Miniprotean II) and transferred to nitrocellulose membrane (Schleicher & Schuell) at 120 volts for 1 hr at room temperature in buffer containing 25 mM Tris pH 8.3, 20% methanol, 0.2 M glycine, 0.1% SDS. The integrity of the protein-to-membrane transfer was determined by staining with 1% Ponceau S in 5% acetic acid for 5 min. After destaining in several distilled water rinses, the membrane was soaked overnight in blocking buffer containing 5% milk in Tris-buffered saline, 0.05% Tween 20. Phosphotyresine was detected by incubating the membrane (1 hr at room temperature) with an anti-phosphotyosine antiserum diluted in blocking buffer at 1:3000. For C6 cells, PDGF-β receptor content in the lysates was confirmed in duplicate sample lanes by western blotting using an antibody specific for PDGF-β receptor (UBI). The antibodies were visualized using ECL reagent from Amersham and by exposure to Fuji RX film.
(§3) For ELISA assays, cells were grown to 80-90% confluency in growth medium and seeded in 96-well tissue culture plates in 0.5% serum at 25,000 to 30,000 cells per well. After overnight incubation in 0.5% serum-containingmedium, cells were changed to serum-free medium and treated with test compound for 2 hr in a 5% CO2, 37° C. incubator. Cells were then stimulated with ligand for 5-10 min followed by lysis with HNTG (20 mM Hepes, 150 mM NaCl, 10% glycerol, 5 mM EDTA, 5 mM Na3 VO4 0.2% Triton X-100, and 2 mM NaPyr). Cell lysates (0.5 mg/well in PBS) were transferred to ELISA plates previously coated with receptor-specific antibody and which had been blocked with 5% milk in TBST (50 mM Tris-HCl pH 7.2, 150 mM NaCl and 0.1% Triton X-100) at room temperature for 30 min. Lysates were incubated with shaking for 1 hr at room temperature. The plates were washed with TBST four times and then incubated with polyclonol anti-phosphotyrosine antibody at room temperature for 30 min. Excess anti-phosphotyrosine antibody was removed by rinsing the plate with TBST four times. Goat anti-rabbit IgG antibody was added to the ELISA plate for 30 min at room temperature followed by rinsing with TBST four more times.
(§4) The ability of different compound to inhibit different receptor tyrosine kinases was tested.

[2] = C6 glioma SC xenograft in mice; format: in vivo; conditions: rat, in vivo, ip
Description: (§5) Cell lines were grown in appropriate medium (see Appendix 1). Cells were harvested at or near confluency with 0.05% Trypsin-EDTA and pelleted at 450×g for 10 min. Pellets were resuspended in sterile PBS or media (without FBS) to a particular concentration and the cells were implanted into the hindflank of mice. Tumor growth was measured over 3 to 6 weeks using venier calipers. Tumor volumes were calculated as a product of length×width×height unless otherwise indicated. P values were calculated using the Students' t-test.
(§6) C6 and SKOV-3(T) cells were grown in culture, as described in "cell growth" above, and implanted into the hind flank of a female Balb/c nu/nu mouse at 3×10^6 cells (for C6 experiments), or 1×10^7 cells (for SKOV-3 experiments) in […] of PBS on Day 0. U87MG, U118MG or U373MG human glioblastoma cells (obtained from the ATCC), or A4312 were also implanted into athymic mice. […] Tumors were measured using venier calipers and tumor volume was calculated as a product of tumor length, width, and height.

C6 glioma cells = assay: C6 glioma SC xenograft in mice; format: in vivo
Description: as §5, §6

LD10 = conditions: in vivo
FLK-1 = molecular target: T2, FLK-1 (Mus musculus, UniProt P35918); assay: Receptor tyrosine kinase inhibition, FLK-1; format: cell-based; conditions: read-out: FLK-1 IC50
T2 construct: expressed in transfected cells; host or cells: NIH3T3 mouse fibroblasts, retroviral vector
Description: as §2, §3, §4

PDGFR [3] = molecular target: T1, PDGFR; assay: Receptor tyrosine kinase inhibition, PDGFR; format: cell-based; set-up: U1242 (PDGF-β receptor); host or cells: U1242 glioma cells (ELISA); conditions: read-out: PDGFR IC50
Description: as §2, with “The medium was replaced with 2 mL MCDB 105 (UCSF Cell Culture Facility) supplemented with 1% FBS.” left out, “Proteins were resolved by SDS-PAGE (Bio-Rad Miniprotean II) and transferred to nitrocellulose membrane (Schleicher & Schuell) at 120 volts for 1 hr at room temperature in buffer containing 25 mM Tris pH 8.3, 20% methanol, 0.2 M glycine, 0.1% SDS.” left out, “For C6 cells, PDGF-β receptor content in the lysates was confirmed in duplicate sample lanes by western blotting using an antibody specific for PDGF-β receptor (UBI).” left out
as §1, with “incubator.” for “incubator. Cells were then stimulated with ligand for 5-10 min followed by lysis with HNTG (20 mM Hepes, 150 mM NaCl, 10% glycerol, 5 mM EDTA, 5 mM Na3 VO4 0.2% Triton X-100, and 2 mM NaPyr).”
as §4

EGFR = molecular target: T3, EGFR (Homo sapiens, UniProt P00533); assay: Receptor tyrosine kinase inhibition, EGFR; format: cell-based; conditions: read-out: EGFR ID50
T3 construct: expressed in transfected cells; host or cells: NIH3T3 mouse fibroblasts, retroviral vector
Description: as §2, §3, §4

PDGF-R (U1242) = molecular target: T4, PDGF-R (U1242) (Homo sapiens, UniProt P09619); assay: U1242 kinase (PDGF-R activity); format: cell-based
T4 construct: U1242 (PDGF-β receptor); host or cells: U1242 MG glioma cells
Description: as §2, with “The medium was replaced with 2 mL MCDB 105 (UCSF Cell Culture Facility) supplemented with 1% FBS.” left out, “Proteins were resolved by SDS-PAGE (Bio-Rad Miniprotean II) and transferred to nitrocellulose membrane (Schleicher & Schuell) at 120 volts for 1 hr at room temperature in buffer containing 25 mM Tris pH 8.3, 20% methanol, 0.2 M glycine, 0.1% SDS.” left out, “For C6 cells, PDGF-β receptor content in the lysates was confirmed in duplicate sample lanes by western blotting using an antibody specific for PDGF-β receptor (UBI).” left out
as §1, with “incubator.” for “incubator. Cells were then stimulated with ligand for 5-10 min followed by lysis with HNTG (20 mM Hepes, 150 mM NaCl, 10% glycerol, 5 mM EDTA, 5 mM Na3 VO4 0.2% Triton X-100, and 2 mM NaPyr).”
PDGF-R activity, C6 SRB, and in vivo efficacy were measured using the procedures described in the appendices above.

C6 cells = assay: C6 SRB growth assay; format: cell-based, rat; conditions: Rattus norvegicus, C6; read-out: C6 SRB IC50
PDGFR [4] = assay: Receptor tyrosine kinase inhibition, PDGFR; format: cell-based; conditions: W = done in Western assay; read-out: PDGFR IC50 (W)
Description: as §2, with “The medium was replaced with 2 mL MCDB 105 (UCSF Cell Culture Facility) supplemented with 1% FBS.” left out, “Proteins were resolved by SDS-PAGE (Bio-Rad Miniprotean II) and transferred to nitrocellulose membrane (Schleicher & Schuell) at 120 volts for 1 hr at room temperature in buffer containing 25 mM Tris pH 8.3, 20% methanol, 0.2 M glycine, 0.1% SDS.” left out, “For C6 cells, PDGF-β receptor content in the lysates was confirmed in duplicate sample lanes by western blotting using an antibody specific for PDGF-β receptor (UBI).” left out
as §1, with “incubator.” for “incubator. Cells were then stimulated with ligand for 5-10 min followed by lysis with HNTG (20 mM Hepes, 150 mM NaCl, 10% glycerol, 5 mM EDTA, 5 mM Na3 VO4 0.2% Triton X-100, and 2 mM NaPyr).”
as §4

[5] = 40 mg/kg (J10 at d18, G24 at d15)

T1 sequence (P09619 33-1106): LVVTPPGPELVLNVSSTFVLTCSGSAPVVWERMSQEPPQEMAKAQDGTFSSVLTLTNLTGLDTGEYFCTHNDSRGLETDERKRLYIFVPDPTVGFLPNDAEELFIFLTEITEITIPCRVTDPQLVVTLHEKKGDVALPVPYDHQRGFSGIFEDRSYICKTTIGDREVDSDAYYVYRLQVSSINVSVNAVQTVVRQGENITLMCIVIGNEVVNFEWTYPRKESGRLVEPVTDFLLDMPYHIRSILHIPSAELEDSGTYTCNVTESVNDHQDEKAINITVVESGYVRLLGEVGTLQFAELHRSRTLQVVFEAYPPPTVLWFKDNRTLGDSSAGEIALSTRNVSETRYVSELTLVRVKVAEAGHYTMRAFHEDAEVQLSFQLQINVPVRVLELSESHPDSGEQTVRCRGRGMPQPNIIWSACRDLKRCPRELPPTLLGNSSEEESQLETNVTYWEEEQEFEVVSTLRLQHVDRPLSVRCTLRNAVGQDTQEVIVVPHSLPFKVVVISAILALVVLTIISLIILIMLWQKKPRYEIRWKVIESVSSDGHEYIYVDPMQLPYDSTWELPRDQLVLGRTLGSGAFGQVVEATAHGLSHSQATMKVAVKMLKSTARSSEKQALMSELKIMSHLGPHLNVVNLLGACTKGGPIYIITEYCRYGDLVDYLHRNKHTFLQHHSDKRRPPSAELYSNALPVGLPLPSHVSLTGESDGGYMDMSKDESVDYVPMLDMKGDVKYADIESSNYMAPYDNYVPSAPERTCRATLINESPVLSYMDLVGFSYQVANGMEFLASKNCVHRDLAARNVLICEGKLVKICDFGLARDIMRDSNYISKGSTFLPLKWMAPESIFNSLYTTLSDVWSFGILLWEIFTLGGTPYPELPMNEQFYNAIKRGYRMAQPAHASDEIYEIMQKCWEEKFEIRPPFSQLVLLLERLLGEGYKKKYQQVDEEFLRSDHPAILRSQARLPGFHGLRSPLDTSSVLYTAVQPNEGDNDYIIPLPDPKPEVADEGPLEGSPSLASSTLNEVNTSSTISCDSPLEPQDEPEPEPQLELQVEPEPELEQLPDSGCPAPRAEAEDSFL
T4 sequence (P09619 33-1106): as above
T3 sequence (P00533 25-1210): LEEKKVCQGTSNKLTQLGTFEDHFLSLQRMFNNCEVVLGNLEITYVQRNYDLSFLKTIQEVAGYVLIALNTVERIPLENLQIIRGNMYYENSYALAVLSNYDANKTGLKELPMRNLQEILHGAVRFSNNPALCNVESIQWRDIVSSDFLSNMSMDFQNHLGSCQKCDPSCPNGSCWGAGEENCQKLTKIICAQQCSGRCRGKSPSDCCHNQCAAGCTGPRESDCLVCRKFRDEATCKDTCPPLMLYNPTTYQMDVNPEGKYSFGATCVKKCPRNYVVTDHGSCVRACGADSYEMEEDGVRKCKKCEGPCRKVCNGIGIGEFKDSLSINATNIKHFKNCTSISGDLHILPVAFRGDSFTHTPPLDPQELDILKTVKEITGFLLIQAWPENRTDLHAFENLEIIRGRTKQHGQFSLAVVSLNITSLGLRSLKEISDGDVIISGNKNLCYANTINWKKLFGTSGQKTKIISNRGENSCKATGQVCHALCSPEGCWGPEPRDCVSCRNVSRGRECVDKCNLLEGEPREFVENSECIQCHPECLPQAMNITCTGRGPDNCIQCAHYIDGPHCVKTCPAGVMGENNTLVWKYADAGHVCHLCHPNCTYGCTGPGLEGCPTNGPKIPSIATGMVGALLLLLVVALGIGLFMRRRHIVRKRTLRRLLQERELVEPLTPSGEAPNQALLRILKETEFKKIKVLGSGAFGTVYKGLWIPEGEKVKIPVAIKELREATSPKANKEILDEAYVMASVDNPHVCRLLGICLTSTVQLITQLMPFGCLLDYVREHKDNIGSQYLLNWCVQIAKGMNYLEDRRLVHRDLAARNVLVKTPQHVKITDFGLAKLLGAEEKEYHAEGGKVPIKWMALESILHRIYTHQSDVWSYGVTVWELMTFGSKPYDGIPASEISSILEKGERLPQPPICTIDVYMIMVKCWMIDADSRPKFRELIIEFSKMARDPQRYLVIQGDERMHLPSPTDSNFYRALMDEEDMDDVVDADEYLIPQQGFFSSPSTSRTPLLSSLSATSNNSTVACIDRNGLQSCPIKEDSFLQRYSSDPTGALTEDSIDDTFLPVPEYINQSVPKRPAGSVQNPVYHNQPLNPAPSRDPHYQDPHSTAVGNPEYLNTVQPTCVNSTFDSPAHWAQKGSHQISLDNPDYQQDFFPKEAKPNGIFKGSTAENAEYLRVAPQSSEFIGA
T2 sequence (P35918 20-1345): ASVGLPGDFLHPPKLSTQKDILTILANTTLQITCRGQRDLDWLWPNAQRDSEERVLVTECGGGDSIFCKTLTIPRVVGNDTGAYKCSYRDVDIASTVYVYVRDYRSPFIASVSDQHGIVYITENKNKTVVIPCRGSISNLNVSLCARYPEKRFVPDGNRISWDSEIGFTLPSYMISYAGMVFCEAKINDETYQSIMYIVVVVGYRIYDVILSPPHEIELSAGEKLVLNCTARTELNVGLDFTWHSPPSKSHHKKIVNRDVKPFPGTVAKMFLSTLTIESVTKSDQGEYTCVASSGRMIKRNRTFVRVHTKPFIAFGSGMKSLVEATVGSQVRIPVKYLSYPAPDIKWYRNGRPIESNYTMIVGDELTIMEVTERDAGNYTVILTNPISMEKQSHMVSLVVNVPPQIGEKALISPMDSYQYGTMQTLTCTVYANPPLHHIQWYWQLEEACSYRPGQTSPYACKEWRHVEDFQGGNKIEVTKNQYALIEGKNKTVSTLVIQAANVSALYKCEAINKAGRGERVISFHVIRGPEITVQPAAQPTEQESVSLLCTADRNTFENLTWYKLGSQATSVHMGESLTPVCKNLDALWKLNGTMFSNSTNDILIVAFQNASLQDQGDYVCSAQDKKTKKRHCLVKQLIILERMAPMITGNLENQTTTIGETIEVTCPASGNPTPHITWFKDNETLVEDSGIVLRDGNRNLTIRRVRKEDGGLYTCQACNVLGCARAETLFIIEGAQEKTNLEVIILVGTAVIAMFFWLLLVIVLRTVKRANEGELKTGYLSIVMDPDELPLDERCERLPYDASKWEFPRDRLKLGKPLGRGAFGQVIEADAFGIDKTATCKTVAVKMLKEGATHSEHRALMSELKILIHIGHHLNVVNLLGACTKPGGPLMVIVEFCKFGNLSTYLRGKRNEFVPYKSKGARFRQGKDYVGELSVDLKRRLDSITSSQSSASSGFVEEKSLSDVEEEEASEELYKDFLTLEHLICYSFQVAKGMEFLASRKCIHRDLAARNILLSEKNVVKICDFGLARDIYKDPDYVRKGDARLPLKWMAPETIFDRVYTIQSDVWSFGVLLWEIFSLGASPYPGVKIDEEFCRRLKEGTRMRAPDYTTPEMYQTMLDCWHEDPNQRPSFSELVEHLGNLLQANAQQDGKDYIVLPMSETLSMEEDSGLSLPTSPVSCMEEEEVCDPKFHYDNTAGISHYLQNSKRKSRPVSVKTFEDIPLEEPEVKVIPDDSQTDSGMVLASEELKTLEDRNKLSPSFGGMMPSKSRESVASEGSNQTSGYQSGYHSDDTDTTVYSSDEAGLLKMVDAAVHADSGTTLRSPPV

Compound | CC50 (U1242 cells) [µM] | IC50 (PDGFR [1]) [µM] | IC50 (HER2) [µM] | mortality [2, 5] [%] | LD10 (LD10) [mg/kg] | IC50 (EGFR) [µM] | IC50 (PDGF-R (U1242); read-out: U1242 KINASE IC50) | also measured
N#CC(C(=O)Nc1ccc(C(F)(F)F)cc1)=C(O)c1cccc(Oc2ccccc2)c1 [Compound B16, 2-Propenamide, 2-cyano-3-hydroxy-3-((3-phenoxy)phenyl)-N-[(4-trifluoromethyl)phenyl]] | 50 | 35 | – | – | – | – | – | –
c1ccc(-c2cnc3ncccc3n2)cc1 [Compound G16] | > 100 | 35 | – | – | – | – | – | –
Cc1cc2nc(-c3ccccc3)c(-c3ccc(O)c(O)c3)nc2cc1C [Compound G24] | – | – | > 50 | 12.5 | > 200 | > 100 | 0.6 µM and 5 µM | mortality ([2]; 20 mg/kg): 0%; mortality at 240 h ([2]; 60 mg/kg (G24 at d10)): 100%; C6 in vivo EFFICACY (C6 glioma cells; at 20 mg/kg): no effect; C6 in vivo EFFICACY (C6 glioma cells; at 40 mg/kg): no effect; C6 in vivo EFFICACY (C6 glioma cells; at 60 mg/kg): no effect; IC50 (FLK-1): 9.3 µM; IC50 (PDGFR [3]): 5 µM
N#CC(=Cc1cc(O)c(O)c(Br)c1)S(=O)(=O)C(C#N)=Cc1cc(O)c(O)c(Br)c1 [Compound J10] | – | – | > 100 | 100 | 171 | > 100 | > 50 µM | IC50 (C6 cells): 12 µM; inhibition in vivo at 40 mg/kg (C6 glioma cells; Rattus norvegicus, C6 glioma, sc, at 40 mg/kg, read-out: C6 in vivo EFFICACY): 73%; IC50 (PDGFR [4]): 1 µM; IC50 (PDGF-R (U1242); W = done in Western assay, read-out: U1242 KINASE IC50 (W)): 1 µM
